Data reported in patent US12358983B2, “Combination of anti CD19 antibody with a BCL-2 inhibitor and uses thereof” (Incyte Corporation, priority 2016, dated 2025).
Marks after values point to notes of the source that are not given here.

Tests used:
[1] = test system: TOLEDO human lymphoma cell tumors; experiment: Subcutaneous human lymphoma cell xenograft model in SCID mice; conditions: for Median Survival (Days Post-Randomization): humane endpoint tumor volume 2000 mm3; for Median % Increase in Doubling Time (IDT) / Median % Increase in Lifespan (ILS): vs. PEP/PBS Control
Description: Toledo cell line and culture medium were purchased and provided by Oncodesign. […] The cells are adherent to plastic flasks.
A statistical test (analysis of variance, ANOVA) was performed to test for homogeneity between groups. MOR208 was injected intraperitoneally (IP) into the peritoneal cavity of mice. Combined substance was administered by oral gavage (per os, PO) via a gavage tube.
The treatment schedule initiated at D23 was as follows:
Animals from group 1 received one daily PO administration of PEP and one IP injection twice a week of PBS.
Animals from group 4 received one IP injection of MOR208 at 11 mg/kg/inj on D23, D27, D30, D34, D37 and D41 followed by a single IP injection of MOR208 at 11 mg/kg/inj on D48 (twice a week).
The viability and behavior were recorded every day. Body weights and tumor volume were measured twice a week. The length and width of the tumor were measured twice a week with calipers and the volume of the tumor was estimated by the formula:

[2] = test system: MEC-1 cells; experiment: Cytotoxicity (ADCC assay with NK effector cells) of MOR00208 and venetoclax alone and in combination in MEC-1 cells; assay type: cell-based
Text: Cell lines tested: MEC-1 cells (DSMZ# ACC497). Culture conditions of cell lines used are according to supplier's information. Cell Medium: lscove's Modified Dulbecco's Medium (IMDM), Invitrogen, Cat No.: 31980; RPMI1640, Invitrogen, Cat No.: 31870; GlutaMAX, Invitrogen, CAT No.: 35050; FCS: Sigma CAT No.: F7524 LOT No.: 111M3396. NKs: RPMI1640, with GlutaMAX, Invitrogen, Cat No.: 31870, 10% FCS; Biocoll: Biochrome AG CAT No.: L6115 LOT No.: 0034D; MACS NK cell isolation kit: Miltenyi Biotec CAT No.: 130-092-657 LOT No.: 5150402327; venetoclax: Selleck Chem. CAT No.: S8048 LOT No.: S804803; FCS: Sigma CAT No.: F7524 LOT No.: 111M3396; and RefmAb33 (anti-RSV) with same Fc region as MOR00208.
The cytotoxic potential of MOR00208 and venetoclax alone and in combination were tested in the MEC-1 cell line (CLL). Target cell killing is measured using the following parameters: venetoclax mono treatment at concentrations of 3 μM, 6.5 μM, and 10 μM; MOR00208 mono treatment at concentrations of 0.01 pM, 0.1 pM, 1 pM, 10 pM, 100 pM and 10 nM, and the combination treatment of the listed venetoclax and MOR00208 concentrations. The following are used as controls: RefnnAb33, NK cells alone, MEC-1 cells alone or DMSO. In the venetoclax mono groups as well as in the MOR00208+venetoclax combination groups, target cells were pretreated with venetoclax or with DMSO control for 24 hours followed by removal of the dead cells prior to the ADCC assay. A dead cell removal kit was used to remove cells killed by the cytotoxic effect of venetoclax. The dead cell removal kit was implemented to mimick the removal of dead cells that also occurs in vivo and to prevent false negative interference of the dead cells with the subsequent ADCC assay. For the ADCC assay, target cells are counted and stained using CFSE at a final concentration of 1 μg/mL. For the control group, i.e. DMSO treated target cells, the effector: target (E:T) cell ratio was adjusted to 2:1, i.e. 1×10E6/nnL effector cells (NK cells) and 5×10E5/mL target cells (MEC-1 cells). […] The ADCC assays were performed as follows: using 96 well plates, 100 μL of MEC-1 target cell suspension was added per well, followed by 100 μL NK effector cell suspension per well. Mixed cell suspensions were centrifuged and resuspended in 100 μL antibody containing medium or the according control solution. The antibodies were diluted in a range of 10 nM-0.01 pM (corresponds to 1.5 μg/mL-1.5 pg/mL) in medium. The ADCC assays were incubated for 2 hours in a CO2-incubator at 37° C. After 10 minutes incubation on ice, 50 μL DAPI solution was added to each well (final concentration 1 μg/mL) and incubated for additional 10 minutes on ice. The ADCC measurements were performed on a BD FACSVerse instrument. Dead target cells were identified as DAPI positive cells.
Combination Index (CI) calculations are completed in order to determine synergy of the combination of the exemplified anti-CD19 antibody and venetoclax as compared to MOR00208 and venetoclax alone. Such calculations are described in Ting-Chao Chou, Theoretical Basis, Experimental Design, and Computerized Simulation of Synergism and Antagonism in Drug Combination Studies, Pharmacol Rev 58:621-681 (2006), which is incorporated by reference in its entirety and Chou TC, Talalay P, Quantitative analysis of dose-effect relationships: the combined effects of multiple drugs or enzyme inhibitors. Adv Enzyme Regul 22: 27-55 (1984), which is incorporated by reference in its entirety. The methods of Chou-Talalay are carried out using the CI-isobol method.
The median-effect equation models the effect of an inhibitor (such as a drug) as Fa/Fu=(D/D50)^m, where D is the dose, Fa and Fu is the fraction of the system affected and unaffected by the dose D (Fa+Fu=1); D50 is the dose producing the median effect (e.g. IC50, ED50, LD50). The constant m determines the shape of the dose-effect curve.

**Q.** What does the source list for `CC1(C)CCC(CN2CCN(c3ccc(C(=O)NS(=O)(=O)c4ccc(NCC5CCOCC5)c([N+](=O)[O-])c4)c(Oc4cnc5[nH]ccc5c4)c3)CC2)=C(c2ccc(Cl)cc2)C1` [Venetoclax, 4-(4-{[2-(4-Chlorophenyl)-4,4-dimethyl-1-cyclohexen-1-yl]methyl}-1-piperazinyl)-N-({3-nitro-4-[(tetrahydro-2H-pyran-4-ylmethyl)amino]phenyl}sulfonyl)-2-(1H-pyrrolo[2,3-b]pyridin-5-yloxy)benzamide, reference compound]?
**A.** Median Tumor Doubling Time ([1]; ABT-199 20 mg/kg p.o. daily): 9.6^a Days; Median Survival (Days Post-Randomization) ([1]; ABT-199 20 mg/kg p.o. daily): 30.0^a Days; Median % Increase in Doubling Time (IDT) ([1]; ABT-199 20 mg/kg p.o. daily): 44%; Median % Increase in Lifespan (ILS) ([1]; ABT-199 20 mg/kg p.o. daily): 43%; Median Tumor Doubling Time ([1]; ABT-199 40 mg/kg p.o. daily): 11.1^a Days; Median Survival (Days Post-Randomization) ([1]; ABT-199 40 mg/kg p.o. daily): 36.2^a Days; Median % Increase in Doubling Time (IDT) ([1]; ABT-199 40 mg/kg p.o. daily): 64%; Median % Increase in Lifespan (ILS) ([1]; ABT-199 40 mg/kg p.o. daily): 72%; Theoretical Venetoclax Dose ([2]; Exp 1, same effect as MOR00208 1.50E+00 μg/mL + venetoclax 3.0 μM): 16.0 µM; Theoretical Venetoclax Dose ([2]; Exp 1, same effect as MOR00208 1.50E+00 μg/mL + venetoclax 6.5 μM): 23.9 µM; Theoretical Venetoclax Dose ([2]; Exp 1, same effect as MOR00208 1.50E+00 μg/mL + venetoclax 10.0 μM): 28.4 µM; Theoretical Venetoclax Dose ([2]; Exp 1, same effect as MOR00208 1.50E−02 μg/mL + venetoclax 3.0 μM): 15.1 µM; Theoretical Venetoclax Dose ([2]; Exp 1, same effect as MOR00208 1.50E−02 μg/mL + venetoclax 6.5 μM): 21.9 µM; Theoretical Venetoclax Dose ([2]; Exp 1, same effect as MOR00208 1.50E−02 μg/mL + venetoclax 10.0 μM): 23.0 µM; Theoretical Venetoclax Dose ([2]; Exp 1, same effect as MOR00208 1.50E−03 μg/mL + venetoclax 3.0 μM): 10.4 µM; Theoretical Venetoclax Dose ([2]; Exp 1, same effect as MOR00208 1.50E−03 μg/mL + venetoclax 6.5 μM): 12.7 µM; Theoretical Venetoclax Dose ([2]; Exp 1, same effect as MOR00208 1.50E−03 μg/mL + venetoclax 10.0 μM): 14.0 µM; Theoretical Venetoclax Dose ([2]; Exp 1, same effect as MOR00208 1.50E−04 μg/mL + venetoclax 3.0 μM): 7.2 µM; Theoretical Venetoclax Dose ([2]; Exp 1, same effect as MOR00208 1.50E−04 μg/mL + venetoclax 6.5 μM): 8.5 µM; Theoretical Venetoclax Dose ([2]; Exp 1, same effect as MOR00208 1.50E−04 μg/mL + venetoclax 10.0 μM): 8.9 µM; Theoretical Venetoclax Dose ([2]; Exp 1, same effect as MOR00208 1.50E−05 μg/mL + venetoclax 3.0 μM): 6.3 µM; Theoretical Venetoclax Dose ([2]; Exp 1, same effect as MOR00208 1.50E−05 μg/mL + venetoclax 6.5 μM): 6.9 µM; Theoretical Venetoclax Dose ([2]; Exp 1, same effect as MOR00208 1.50E−05 μg/mL + venetoclax 10.0 μM): 7.4 µM; Theoretical Venetoclax Dose ([2]; Exp 1, same effect as MOR00208 1.50E−06 μg/mL + venetoclax 10.0 μM): 6.4 µM; Actual Venetoclax Effect ([2]; Exp 1, venetoclax 3.0 μM): 8.9 % dead cells; Actual Venetoclax Effect ([2]; Exp 1, venetoclax 6.5 μM): 17.7 % dead cells; Actual Venetoclax Effect ([2]; Exp 1, venetoclax 10.0 μM): 38.8 % dead cells; Theoretical Venetoclax Dose ([2]; Exp 2, same effect as MOR00208 1.50E+00 μg/mL + venetoclax 3.0 μM): 11.2 µM; Theoretical Venetoclax Dose ([2]; Exp 2, same effect as MOR00208 1.50E+00 μg/mL + venetoclax 6.5 μM): 12.5 µM; Theoretical Venetoclax Dose ([2]; Exp 2, same effect as MOR00208 1.50E+00 μg/mL + venetoclax 10.0 μM): 17.6 µM; Theoretical Venetoclax Dose ([2]; Exp 2, same effect as MOR00208 1.50E−02 μg/mL + venetoclax 3.0 μM): 10.6 µM; Theoretical Venetoclax Dose ([2]; Exp 2, same effect as MOR00208 1.50E−02 μg/mL + venetoclax 6.5 μM): 11.9 µM; Theoretical Venetoclax Dose ([2]; Exp 2, same effect as MOR00208 1.50E−02 μg/mL + venetoclax 10.0 μM): 15.0 µM; Theoretical Venetoclax Dose ([2]; Exp 2, same effect as MOR00208 1.50E−03 μg/mL + venetoclax 3.0 μM): 8.6 µM; Theoretical Venetoclax Dose ([2]; Exp 2, same effect as MOR00208 1.50E−03 μg/mL + venetoclax 6.5 μM): 9.4 µM; Theoretical Venetoclax Dose ([2]; Exp 2, same effect as MOR00208 1.50E−03 μg/mL + venetoclax 10.0 μM): 11.3 µM; Theoretical Venetoclax Dose ([2]; Exp 2, same effect as MOR00208 1.50E−04 μg/mL + venetoclax 3.0 μM): 7.3 µM; Theoretical Venetoclax Dose ([2]; Exp 2, same effect as MOR00208 1.50E−04 μg/mL + venetoclax 6.5 μM): 7.9 µM; Theoretical Venetoclax Dose ([2]; Exp 2, same effect as MOR00208 1.50E−04 μg/mL + venetoclax 10.0 μM): 8.8 µM; Theoretical Venetoclax Dose ([2]; Exp 2, same effect as MOR00208 1.50E−05 μg/mL + venetoclax 3.0 μM): 6.6 µM; Theoretical Venetoclax Dose ([2]; Exp 2, same effect as MOR00208 1.50E−05 μg/mL + venetoclax 6.5 μM): 7.1 µM; Theoretical Venetoclax Dose ([2]; Exp 2, same effect as MOR00208 1.50E−05 μg/mL + venetoclax 10.0 μM): 8.0 µM; Theoretical Venetoclax Dose ([2]; Exp 2, same effect as MOR00208 1.50E−06 μg/mL + venetoclax 6.5 μM): 6.7 µM; Theoretical Venetoclax Dose ([2]; Exp 2, same effect as MOR00208 1.50E−06 μg/mL + venetoclax 10.0 μM): 7.2 µM; Actual Venetoclax Effect ([2]; Exp 2, venetoclax 3.0 μM): 19.9 % dead cells; Actual Venetoclax Effect ([2]; Exp 2, venetoclax 6.5 μM): 32.4 % dead cells; Actual Venetoclax Effect ([2]; Exp 2, venetoclax 10.0 μM): 73.9 % dead cells; Theoretical Venetoclax Dose ([2]; Exp 3, same effect as MOR00208 1.50E+00 μg/mL + venetoclax 3.0 μM): 16.6 µM; Theoretical Venetoclax Dose ([2]; Exp 3, same effect as MOR00208 1.50E+00 μg/mL + venetoclax 6.5 μM): 29.4 µM; Theoretical Venetoclax Dose ([2]; Exp 3, same effect as MOR00208 1.50E+00 μg/mL + venetoclax 10.0 μM): 31.0 µM; Theoretical Venetoclax Dose ([2]; Exp 3, same effect as MOR00208 1.50E−02 μg/mL + venetoclax 3.0 μM): 15.4 µM; Theoretical Venetoclax Dose ([2]; Exp 3, same effect as MOR00208 1.50E−02 μg/mL + venetoclax 6.5 μM): 22.3 µM; Theoretical Venetoclax Dose ([2]; Exp 3, same effect as MOR00208 1.50E−02 μg/mL + venetoclax 10.0 μM): 31.0 µM; Theoretical Venetoclax Dose ([2]; Exp 3, same effect as MOR00208 1.50E−03 μg/mL + venetoclax 3.0 μM): 10.2 µM; Theoretical Venetoclax Dose ([2]; Exp 3, same effect as MOR00208 1.50E−03 μg/mL + venetoclax 6.5 μM): 12.2 µM; Theoretical Venetoclax Dose ([2]; Exp 3, same effect as MOR00208 1.50E−03 μg/mL + venetoclax 10.0 μM): 18.4 µM; Theoretical Venetoclax Dose ([2]; Exp 3, same effect as MOR00208 1.50E−04 μg/mL + venetoclax 3.0 μM): 7.9 µM; Theoretical Venetoclax Dose ([2]; Exp 3, same effect as MOR00208 1.50E−04 μg/mL + venetoclax 6.5 μM): 9.0 µM; Theoretical Venetoclax Dose ([2]; Exp 3, same effect as MOR00208 1.50E−04 μg/mL + venetoclax 10.0 μM): 11.6 µM; Theoretical Venetoclax Dose ([2]; Exp 3, same effect as MOR00208 1.50E−05 μg/mL + venetoclax 3.0 μM): 6.4 µM; Theoretical Venetoclax Dose ([2]; Exp 3, same effect as MOR00208 1.50E−05 μg/mL + venetoclax 6.5 μM): 7.5 µM; Theoretical Venetoclax Dose ([2]; Exp 3, same effect as MOR00208 1.50E−05 μg/mL + venetoclax 10.0 μM): 9.6 µM; Theoretical Venetoclax Dose ([2]; Exp 3, same effect as MOR00208 1.50E−06 μg/mL + venetoclax 6.5 μM): 6.4 µM; Theoretical Venetoclax Dose ([2]; Exp 3, same effect as MOR00208 1.50E−06 μg/mL + venetoclax 10.0 μM): 8.4 µM; Actual Venetoclax Effect ([2]; Exp 3, venetoclax 3.0 μM): 7.7 % dead cells; Actual Venetoclax Effect ([2]; Exp 3, venetoclax 6.5 μM): 16.3 % dead cells; Actual Venetoclax Effect ([2]; Exp 3, venetoclax 10.0 μM): 48.1 % dead cells
